Patent publication US12319681B2, “Tripartite androgen receptor eliminators, methods and uses thereof” (SPG Therapeutics, Inc., priority 2017, dated 2025)

Tests used:
androgen receptor (AR) [1] = target: T1, androgen receptor (AR) (Homo sapiens, UniProt P10275); experiment: Keratinocyte AR protein level ELISA (Example 10); format: cell-based; conditions: 24 h, read-out: AR Reduction
T1 construct: human keratinocytes transfected with an AR luciferase reporter gene; endogenous in cells; host or cells: normal human adult primary epidermal keratinocytes (ATCC PCS-200-011)
T1 sequence (P10275 1-920): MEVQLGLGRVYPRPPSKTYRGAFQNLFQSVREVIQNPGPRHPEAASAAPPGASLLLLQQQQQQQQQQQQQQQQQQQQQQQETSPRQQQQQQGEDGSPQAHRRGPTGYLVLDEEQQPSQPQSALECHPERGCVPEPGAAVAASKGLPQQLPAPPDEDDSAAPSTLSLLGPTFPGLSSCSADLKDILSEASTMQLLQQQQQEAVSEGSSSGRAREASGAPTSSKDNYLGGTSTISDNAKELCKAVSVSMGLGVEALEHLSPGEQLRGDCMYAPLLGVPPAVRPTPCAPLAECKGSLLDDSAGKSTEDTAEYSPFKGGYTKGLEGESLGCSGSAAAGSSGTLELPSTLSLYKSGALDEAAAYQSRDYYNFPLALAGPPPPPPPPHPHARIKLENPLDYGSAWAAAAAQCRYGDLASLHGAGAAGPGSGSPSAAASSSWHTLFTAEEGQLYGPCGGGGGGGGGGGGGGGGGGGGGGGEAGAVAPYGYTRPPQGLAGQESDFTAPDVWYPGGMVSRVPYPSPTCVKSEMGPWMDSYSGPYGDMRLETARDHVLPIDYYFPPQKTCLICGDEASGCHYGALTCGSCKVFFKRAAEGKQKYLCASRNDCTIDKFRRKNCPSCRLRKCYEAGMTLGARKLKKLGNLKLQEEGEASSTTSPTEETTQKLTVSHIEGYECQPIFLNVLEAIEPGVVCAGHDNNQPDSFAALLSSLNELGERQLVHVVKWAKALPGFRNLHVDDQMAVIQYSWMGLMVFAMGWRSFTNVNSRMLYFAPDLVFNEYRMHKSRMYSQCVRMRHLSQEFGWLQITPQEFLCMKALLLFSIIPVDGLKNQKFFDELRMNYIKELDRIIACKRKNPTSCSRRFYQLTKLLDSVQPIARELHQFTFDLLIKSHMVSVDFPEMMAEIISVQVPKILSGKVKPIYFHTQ
Procedure: Each ARE tested was prepared in DMSO. […] Ethanol concentrations in media never exceeded 0.1%.
To assess levels of AR, an ELISA was performed.

androgen receptor (AR) [2] = target: T1, androgen receptor (AR); experiment: Keratinocyte AR Reporter Gene Assay with washout (sustained effects); format: cell-based; conditions: 7.0 μM for 24 hours
Procedure: Reporter gene activity was measured following two days or three days of additional cell culture in the absence of AR antagonists. AR reporter gene activity reduction was calculated as follows: 1−(average signal (treatment group)/(average signal (treatment group, without drug, same washout period).

[3] = Human Skin Penetration Assays (Franz-cell, HTS station); format: in vitro ADME; conditions: 8 hours of exposure
Procedure: To examine the penetration ability of SPG-003 formulation, two different assays were conducted. The SPG-003 formulation was prepared by adding SPG-003 (final concentration 1.0% by weight) to a mixture comprising 30% denatured alcohol. 49% IPM, 20% Transcutol and sonicaing this mixture until the compound was dissolved.
Human cadaver skin tissue was purchased from a tissue bank in the U.S. Two lots of the dermatomed skin tissue were used. Donor demographics: tissue 08033 (average thickness: 397 μm): […], […], […], and anatomical site=abdomen; tissue 08696 (average thickness; 1,040 μm): […], […], […], and anatomical site=abdomen. The thickness was measured using a digital snap gage. Duplicate for each donor (N=2). The tissue was received in dry ice packaging. It was stored at −20° C. until use.
After passing initial visual inspection, barrier integrity of the skin tissue was evaluated using transepidermal electrical resistance measurement (TEER measurement). […] Prior to the skin absorption and penetration study, electrical resistance value for each lot of human skin tissue was evaluated. […] Transepidermal electrical resistance value (TEER measurement, Z value) was measured. […] It was determined that the threshold TEER value was 6.0 KOhms for donor 08033 and 10 KOhms for donor 08696. […]
The data collection time point was 8 hours. […] The extracts were collected and ready for analysis. […]

In the case of `CC12CCC(=O)C=C1C[C@@H](SC(=O)CC13CC4CC(CC(C4)C1)C3)C1C2CCC2(C)C1CC[C@@]21CCC(=O)O1` (some centres unmarked) [SPG-003], the inhibition at 0.1 µM (androgen receptor (AR) [1]) is reported as 6%, the inhibition at 1 µM (androgen receptor (AR) [1]) is reported as 19% and the inhibition at 3 µM (androgen receptor (AR) [1]) is reported as 26%. For the same compound, the inhibition at 10 µM (androgen receptor (AR) [1]) was 65%, the “AR reporter gene activity reduction” value (androgen receptor (AR) [2]; Washout Period 0 days) was 89 ± 1.0% and the “AR reporter gene activity reduction” value (androgen receptor (AR) [2]; Washout Period 2 days) was 64 ± 0.3%. For the same compound, the “skin penetration (in words)” value [3] was “limited amount” and the “skin retention in epidermis and dermis (in words)” value [3] was “good amount”.
